{"source": "paper PMC6952399", "about": "“Structures of lipoprotein signal peptidase II from Staphylococcus aureus complexed with antibiotics globomycin and myxovirescin” (Nature Communications, 2020)", "biological_target": "T1, LspPae (lipoprotein signal peptidase II from Pseudomonas aeruginosa) (Pseudomonas aeruginosa, UniProt Q9HVM5)", "T1 construct": "made in house", "T1 sequence (Q9HVM5 1-169)": "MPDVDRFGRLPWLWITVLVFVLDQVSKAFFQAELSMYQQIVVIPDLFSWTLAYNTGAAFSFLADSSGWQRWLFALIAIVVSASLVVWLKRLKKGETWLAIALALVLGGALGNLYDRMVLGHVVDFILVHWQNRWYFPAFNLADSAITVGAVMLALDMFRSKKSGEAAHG", "experiment": "FRET lipopeptide peptidase assay, LspPae", "format": "biochemical", "settings": "for Fluorescence (RFU): FRET substrate + LspA + Myxovirescin", "procedure": "FRET activity assays. A FRET based assay was developed using a labelled lipopeptide substrate (Supplementary Methods, Supplementary Fig. 3b) to directly monitor the protease activity of LspA. The optimised LspMrs assay buffer included 100 mM Tris/HCl pH 7.8, 150 mM NaCl and 0.09%(w/v) DDM. The corresponding optimized buffer for LspPae included 100 mM MES/NaOH pH 5.6, 150 mM NaCl and 0.05%(w/v) LMNG. All assays were performed at 37 °C.\nReaction mixtures were prepared by vortexing (Clifton, cyclone CM-1) for 2 s and incubated at 37 °C, 800 rpm for 10 to 30 min. […] For dose-response assays, the final DMSO concentration in all reactions was 10%(v/v). Reaction mixtures were pipetted into wells of a 96- (Thermo Scientific) or a 384-well plate (4titude®) and incubated for 10 min at 37 °C in a SpectraMax M3 or a SpectraMax M5e plate reader (Molecular devices) prior to starting the assay. Assays were initiated by adding enzyme to a final concentration in the range 10–300 nM. Total reaction mixture volume was 50 μL. Reactions were monitored by fluorescence (Ex/Em, 320 nm/420 nm) for 30 to 60 min at 37 °C. Initial rates were calculated from the fluorescence intensity versus time progress curves (Supplementary Figs. 5 and 6). Occasionally, lag periods in the progress curves were observed (Supplementary Discussion). In such cases, initial rates were calculated after the lag period had passed (typically 1–5 min) and a steady rate had been established. Dose-response plots to determine IC50 values were generated using Prism® 5 software from GraphPad.\nIt was possible to convert units of fluorescence change into moles of substrate consumed or products formed because pure products of LspA action on Abz-LALAGC*SS-nY-NH2 had been synthesized and were available. These were used to create a standard curve of fluorescence versus moles of the two products in equimolar amounts and to calculate specific activity values. […]\nOne consequence of LspMrs having a relatively low specific activity is that, in order to get a reliable signal in activity assays, it was necessary to raise enzyme concentration. For kinetic measurements generally, it is desirable to use an enzyme concentration that is much lower than that of the substrate. In this situation, the usual assumption that added and free substrate concentrations are equal is valid. At high enzyme concentrations [E] therefore, and especially in the case of tight ligand binding where the inhibition constant, Ki, is small, a measured IC50 is limited to [E]/2 4–6. In such circumstances, a meaningful IC50 or Ki can only be obtained with considerable effort. With a few exceptions in the current study, this situation prevailed with both LspA orthologs where IC50 values came close to [E]/2 (Table 1 and Supplementary Table 3, Supplementary Fig. 6). […]\nInhibition of LspA from E. coli by globomycin has been described as non-competitive7. The evidence provided in support o f this conclusion included an insensitivity of IC 50 to substrate concentration and the fact that the Vmax but not the K m changed with globomycin concentration. It was of interest to determine if a similar mode of inhibition applied to LspPae and LspMrs. From published work7–9 and from FRET-based kinetics measurements reported here, we know that globomycin binds with high affinity (Supplementary Fig. 6). Tight binding means that a more in-depth analysis must be carried out in order to identify inhibition type. For such analysis, it is important to know active enzyme concentration accurately. Fortunately, it was possible to use the property of tight inhibitor binding to measure the concentration of active enzyme ( Supplementary Fig. 18a). In the case of LspPae, the estimated value and the concentration determined spectroscopically agreed remarkably well. Parenthetically we note that knowing active LspPae concentration accurately enabled a characterization of the myxovirescin sample used in this study. Myxovirescin also binds tightly to LspA (Supplementary Fig. 6). […]", "data": [{"compound": "CCCC1OC(=O)C(C)CC(C)CCCCC(=O)CCCC(CC)C=CC=C(COC)CCC(O)C(O)CC(O)CNC1=O", "note": "(centres unmarked) [myxovirescin, myxovirescin A1]", "values": [{"measurement": "inhibitor on-rates", "setting": "5-fold molar excess of antibiotic added 20 to 30 min after start of reaction", "result": "fast"}, {"measurement": "Fluorescence (RFU)", "setting": "time 27 min", "result": 524.203, "unit": "RFU"}, {"measurement": "Fluorescence (RFU)", "setting": "time 27.5 min", "result": 527.644, "unit": "RFU"}, {"measurement": "Fluorescence (RFU)", "setting": "time 28 min", "result": 525.326, "unit": "RFU"}, {"measurement": "Fluorescence (RFU)", "setting": "time 28.5 min", "result": 532.036, "unit": "RFU"}, {"measurement": "Fluorescence (RFU)", "setting": "time 29 min", "result": 530.446, "unit": "RFU"}, {"measurement": "Fluorescence (RFU)", "setting": "time 29.5 min", "result": 520.770, "unit": "RFU"}, {"measurement": "Fluorescence (RFU)", "setting": "time 30 min", "result": 525.266, "unit": "RFU"}, {"measurement": "Fluorescence (RFU)", "setting": "time 30.5 min", "result": 523.492, "unit": "RFU"}, {"measurement": "Fluorescence (RFU)", "setting": "time 31 min", "result": 522.555, "unit": "RFU"}, {"measurement": "Fluorescence (RFU)", "setting": "time 31.5 min", "result": 520.169, "unit": "RFU"}, {"measurement": "Fluorescence (RFU)", "setting": "time 32 min", "result": 526.741, "unit": "RFU"}, {"measurement": "Fluorescence (RFU)", "setting": "time 32.5 min", "result": 523.010, "unit": "RFU"}, {"measurement": "Fluorescence (RFU)", "setting": "time 33 min", "result": 519.722, "unit": "RFU"}, {"measurement": "Fluorescence (RFU)", "setting": "time 33.5 min", "result": 528.885, "unit": "RFU"}, {"measurement": "Fluorescence (RFU)", "setting": "time 34 min", "result": 517.843, "unit": "RFU"}, {"measurement": "Fluorescence (RFU)", "setting": "time 34.5 min", "result": 518.721, "unit": "RFU"}, {"measurement": "Fluorescence (RFU)", "setting": "time 35 min", "result": 516.893, "unit": "RFU"}, {"measurement": "Fluorescence (RFU)", "setting": "time 35.5 min", "result": 521.148, "unit": "RFU"}, {"measurement": "Fluorescence (RFU)", "setting": "time 36 min", "result": 519.865, "unit": "RFU"}, {"measurement": "Fluorescence (RFU)", "setting": "time 36.5 min", "result": 522.746, "unit": "RFU"}, {"measurement": "Fluorescence (RFU)", "setting": "time 37 min", "result": 519.603, "unit": "RFU"}, {"measurement": "Fluorescence (RFU)", "setting": "time 37.5 min", "result": 522.440, "unit": "RFU"}, {"measurement": "Fluorescence (RFU)", "setting": "time 38 min", "result": 518.255, "unit": "RFU"}, {"measurement": "Fluorescence (RFU)", "setting": "time 38.5 min", "result": 516.274, "unit": "RFU"}, {"measurement": "Fluorescence (RFU)", "setting": "time 39 min", "result": 516.879, "unit": "RFU"}, {"measurement": "Fluorescence (RFU)", "setting": "time 39.5 min", "result": 521.400, "unit": "RFU"}, {"measurement": "Fluorescence (RFU)", "setting": "time 40 min", "result": 509.974, "unit": "RFU"}, {"measurement": "Fluorescence (RFU)", "setting": "time 40.5 min", "result": 516.718, "unit": "RFU"}, {"measurement": "Fluorescence (RFU)", "setting": "time 41 min", "result": 513.520, "unit": "RFU"}, {"measurement": "Fluorescence (RFU)", "setting": "time 41.5 min", "result": 514.018, "unit": "RFU"}, {"measurement": "Fluorescence (RFU)", "setting": "time 42 min", "result": 520.839, "unit": "RFU"}, {"measurement": "Fluorescence (RFU)", "setting": "time 42.5 min", "result": 520.491, "unit": "RFU"}, {"measurement": "Fluorescence (RFU)", "setting": "time 43 min", "result": 514.424, "unit": "RFU"}, {"measurement": "Fluorescence (RFU)", "setting": "time 43.5 min", "result": 516.271, "unit": "RFU"}, {"measurement": "Fluorescence (RFU)", "setting": "time 44 min", "result": 509.335, "unit": "RFU"}, {"measurement": "Fluorescence (RFU)", "setting": "time 44.5 min", "result": 511.506, "unit": "RFU"}, {"measurement": "Fluorescence (RFU)", "setting": "time 45 min", "result": 512.926, "unit": "RFU"}, {"measurement": "Fluorescence (RFU)", "setting": "time 45.5 min", "result": 515.088, "unit": "RFU"}, {"measurement": "Fluorescence (RFU)", "setting": "time 46 min", "result": 509.497, "unit": "RFU"}, {"measurement": "Fluorescence (RFU)", "setting": "time 46.5 min", "result": 509.153, "unit": "RFU"}, {"measurement": "Fluorescence (RFU)", "setting": "time 47 min", "result": 505.807, "unit": "RFU"}, {"measurement": "Fluorescence (RFU)", "setting": "time 47.5 min", "result": 508.613, "unit": "RFU"}, {"measurement": "Fluorescence (RFU)", "setting": "time 48 min", "result": 508.252, "unit": "RFU"}, {"measurement": "Fluorescence (RFU)", "setting": "time 48.5 min", "result": 514.611, "unit": "RFU"}, {"measurement": "Fluorescence (RFU)", "setting": "time 49 min", "result": 508.852, "unit": "RFU"}, {"measurement": "Fluorescence (RFU)", "setting": "time 49.5 min", "result": 511.333, "unit": "RFU"}, {"measurement": "Fluorescence (RFU)", "setting": "time 50 min", "result": 507.505, "unit": "RFU"}, {"measurement": "Fluorescence (RFU)", "setting": "time 50.5 min", "result": 508.404, "unit": "RFU"}, {"measurement": "Fluorescence (RFU)", "setting": "time 51 min", "result": 511.832, "unit": "RFU"}]}]}
